Among the test systems are SNB-75; A549; ACHN; 786-0; OVCAR-8; M14; NCI-H23; NCI-H522; HOP-62; SN12C; COLO 205; SF-268; SK-MEL-2; HCC 2998; UO-31; HCT-15; NCI-H226; TK-10; A498; SNB-19.
Common to all, as to experiment: NCI anticancer screen, dose series, 48 h

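The compound was tested at five concentrations on cells cultured in 96-well plates, with a 48-hour exposure period. Here, GI50 denotes the concentration required for 50% inhibition of growth.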 Calls of active or inactive are those of the source. Cut-off read from the data, not from the text of the source: active = GI50 up to about 1.1 µM and inactive = higher. Where only a bound is given, the exact number is not on record here.

Turning to `CC12CCC(O)CC1CCC1C2CCC2(C)C(C(=O)CC(O)C(F)(F)F)CCC12` (stereo not given), the GI50 with SNB-75 is 19.3 µM (inactive); in the test with A549, 28.9 µM (inactive); in the test on ACHN, 47.6 µM (inactive); with 786-0 it was 7.46 µM (inactive); in the test with OVCAR-8 it was 55.7 µM (inactive); in the test on M14, 20.8 µM (inactive). Moreover, the GI50 was 40.9 µM (inactive) with NCI-H23; 27.1 µM (inactive) in the test with NCI-H522; 27.7 µM (inactive) with HOP-62; > 100 µM (inactive) with SN12C; 12.2 µM (inactive) in the test on COLO 205; 33.7 µM (inactive) with SF-268. Besides, the GI50 was 32.1 µM (inactive) in the test with SK-MEL-2; 21.6 µM (inactive) with HCC 2998; 3.99 µM (inactive) with UO-31; 9.06 µM with HCT-15; 40 µM (inactive) in the test on NCI-H226; 53.7 µM (inactive) in the test on TK-10. Besides, the GI50 in the test on A498 was 20.2 µM (inactive); in the test with SNB-19, 24.9 µM (inactive).

`COC(=O)C(=O)C(C(=O)OC)C(=O)C(=O)Nc1cc(Cl)c(Cl)cc1Cl` (stereo not given): the GI50 with SNB-75, in the test with A549, in the test on ACHN, in the test on 786-0, with OVCAR-8 and in the test on M14 was > 100 µM (inactive) throughout. The GI50 with NCI-H23 is > 100 µM (inactive); with NCI-H522 it was > 100 µM (inactive); in the test on HOP-62 it was > 100 µM (inactive); in the test on SN12C, > 100 µM (inactive); with COLO 205, 29.4 µM (inactive); in the test with SF-268 it was > 100 µM (inactive). The GI50 was > 100 µM (inactive) with SK-MEL-2; > 100 µM (inactive) in the test with HCC 2998; > 100 µM (inactive) with UO-31; 47.1 µM in the test on HCT-15; > 100 µM (inactive) in the test on NCI-H226; > 100 µM (inactive) in the test on TK-10. Moreover, the GI50 in the test with A498 and in the test with SNB-19 was > 100 µM (inactive) in each case.

For `CCCCCCNC(=O)C1=C(C)NC(C)=C(C(=O)NCCCCCC)C1`, the GI50 is 51.9 µM (inactive) in the test with SNB-75; > 100 µM (inactive) in the test on A549; > 100 µM (inactive) in the test with ACHN; > 100 µM (inactive) with 786-0; > 100 µM (inactive) in the test with OVCAR-8; > 100 µM (inactive) in the test on M14. Further, the GI50 in the test with NCI-H23, with NCI-H522, in the test on HOP-62, in the test on SN12C, in the test with COLO 205 and in the test with SF-268 was > 100 µM (inactive) throughout. For the same molecule, the GI50 in the test on SK-MEL-2 is > 100 µM (inactive); in the test on HCC 2998 it was > 100 µM (inactive); with UO-31, 63.8 µM (inactive); in the test on HCT-15, over 100 µM; in the test with NCI-H226, > 100 µM (inactive); in the test on TK-10 it was > 100 µM (inactive). Further, the GI50 in the test on A498 and in the test on SNB-19 was > 100 µM (inactive) in each case.

`COC1=C(C(c2cc(OC)c(OC)c(OC)c2)c2cc3c(cc2OC)OCO3)C(=O)OC1` (stereo not given): the GI50 in the test on SNB-75 was > 37.9 µM (inactive); with A549 it was 20.1 µM (inactive); in the test with ACHN, 26.7 µM (inactive); with 786-0, 26.1 µM (inactive); with OVCAR-8, 27 µM (inactive); with M14, 17.9 µM (inactive). The GI50 was 24.8 µM (inactive) in the test with NCI-H23; 7.8 µM (inactive) in the test on NCI-H522; 24.8 µM (inactive) in the test with HOP-62; 34.8 µM (inactive) in the test on SN12C; 23.8 µM (inactive) in the test with COLO 205; 24.6 µM (inactive) in the test on SF-268. Moreover, the GI50 was 45.2 µM (inactive) in the test with SK-MEL-2; 44.1 µM (inactive) with HCC 2998; 14.2 µM (inactive) in the test with UO-31; 20.4 µM in the test on HCT-15; 28.4 µM (inactive) in the test with NCI-H226; > 44 µM (inactive) with TK-10. The GI50 in the test on A498 was 14.9 µM (inactive); in the test with SNB-19, 30.7 µM (inactive).

On to `C=C(Nc1ccc(OC)cc1OC)C(=O)Cc1cccc[n+]1[O-]`, for which the GI50 in the test on SNB-75, in the test on A549, in the test with ACHN, in the test with 786-0, in the test on OVCAR-8 and in the test on M14 was > 100 µM (inactive) each time. The GI50 with NCI-H23, in the test on NCI-H522, with HOP-62, in the test on SN12C, in the test on COLO 205 and in the test on SF-268 was > 100 µM (inactive) throughout. Also, the GI50 in the test with SK-MEL-2 is > 100 µM (inactive); in the test on HCC 2998, > 100 µM (inactive); in the test on UO-31 it was > 100 µM (inactive); with HCT-15, over 100 µM; in the test on NCI-H226, > 100 µM (inactive); in the test with TK-10, > 100 µM (inactive). Also, the GI50 with A498 and with SNB-19 was > 100 µM (inactive) throughout.

Regarding `CNNC(=NS(=O)(=O)c1cc(C#N)c(NNC)cc1S)NNC`, the GI50 in the test with SNB-75, with A549, in the test with ACHN, in the test on 786-0, in the test on OVCAR-8 and with M14 was > 10 µM (inactive) each time. Further, the GI50 in the test on NCI-H23, with NCI-H522, in the test on HOP-62, in the test with SN12C, with COLO 205 and in the test on SF-268 was > 10 µM (inactive) in each case. Moreover, the GI50 with SK-MEL-2 was > 10 µM (inactive); with HCC 2998, > 10 µM (inactive); with UO-31, > 10 µM (inactive); in the test on HCT-15, over 10 µM; with NCI-H226, > 10 µM (inactive); in the test on TK-10, > 10 µM (inactive). Moreover, the GI50 in the test on A498 and in the test on SNB-19 was > 10 µM (inactive) throughout.

For `N#CCC(=O)N/N=C1\C(=O)N(c2ccc(Cl)cc2)C(=O)C(=O)C1c1nc2ccccc2o1` (stereo not given), the GI50 with SNB-75, with A549, in the test on ACHN, with 786-0, with OVCAR-8 and with M14 was > 100 µM (inactive) each time. Further, the GI50 with NCI-H23, with NCI-H522, in the test on HOP-62, in the test on SN12C, with COLO 205 and in the test on SF-268 was > 100 µM (inactive) each time. Besides, the GI50 is > 100 µM (inactive) in the test on SK-MEL-2; > 100 µM (inactive) in the test on HCC 2998; > 100 µM (inactive) in the test on UO-31; over 100 µM in the test on HCT-15; > 100 µM (inactive) in the test with NCI-H226; > 100 µM (inactive) in the test with TK-10. Besides, the GI50 in the test with A498 and in the test with SNB-19 was > 100 µM (inactive) in each case.

Regarding `O=c1[nH]c2cc(C(F)(F)F)ccc2nc1C(F)(F)F`, the GI50 was 30.2 µM (inactive) in the test on SNB-75; 32.6 µM (inactive) in the test with A549; 37.3 µM (inactive) with ACHN; 37 µM (inactive) in the test with 786-0; 36 µM (inactive) with OVCAR-8; 45.1 µM (inactive) in the test with M14. The GI50 in the test on NCI-H23 was 27.2 µM (inactive); with NCI-H522, 29.4 µM (inactive); in the test on HOP-62, 18.2 µM (inactive); in the test with SN12C it was 29.7 µM (inactive); in the test with COLO 205, 30.9 µM (inactive); with SF-268 it was 40.4 µM (inactive). Besides, the GI50 in the test with SK-MEL-2 was 33.7 µM (inactive); in the test on HCC 2998, 49.7 µM (inactive); with UO-31 it was 30.4 µM (inactive); in the test on HCT-15, 37.2 µM; with NCI-H226 it was 28.6 µM (inactive); in the test with TK-10, 49.7 µM (inactive). The figures for the GI50 in the test on A498 and in the test with SNB-19 were 41.3 µM (inactive) and 35.6 µM (inactive), respectively.

Regarding `Cc1cccc(C)c1NC(=O)C(=O)C1C(=O)N(c2ccccc2)N=C1N` (stereo not given), the GI50 in the test on SNB-75 is 94.4 µM (inactive); with A549, > 100 µM (inactive); with ACHN, > 100 µM (inactive); in the test with 786-0, > 100 µM (inactive); in the test on OVCAR-8, > 100 µM (inactive); in the test on M14, > 100 µM (inactive). Moreover, the GI50 in the test on NCI-H23, in the test with NCI-H522, in the test with HOP-62, in the test with SN12C, in the test on COLO 205 and with SF-268 was > 100 µM (inactive) throughout. Besides, the GI50 in the test with SK-MEL-2 was > 100 µM (inactive); in the test on HCC 2998 it was > 100 µM (inactive); in the test on UO-31, > 100 µM (inactive); with HCT-15, over 100 µM; in the test on NCI-H226, > 100 µM (inactive); in the test on TK-10 it was > 100 µM (inactive). Further, the GI50 in the test with A498 and in the test with SNB-19 was > 100 µM (inactive) each time.

As to `COc1ccc(NC(=O)C(=O)NO)c(OC)c1`, the GI50 with SNB-75 was 16.5 µM (inactive); with A549, 19.6 µM (inactive); with ACHN it was 15.9 µM (inactive); with 786-0, 16 µM (inactive); in the test with OVCAR-8 it was 15 µM (inactive); in the test on M14, 16.3 µM (inactive). Also, the GI50 in the test with NCI-H23 is 18.6 µM (inactive); in the test with NCI-H522, 5.92 µM (inactive); in the test with HOP-62, 19.9 µM (inactive); in the test with SN12C, 20 µM (inactive); in the test on COLO 205, 21 µM (inactive); with SF-268 it was 16.9 µM (inactive). Also, the GI50 with SK-MEL-2 was 16.1 µM (inactive); in the test on HCC 2998 it was 21.4 µM (inactive); in the test with UO-31 it was 16.2 µM (inactive); with HCT-15, 16.3 µM; in the test with NCI-H226 it was 22.3 µM (inactive); in the test with TK-10, 22.4 µM (inactive). The GI50 is 21.5 µM (inactive) in the test on A498 and 14.9 µM (inactive) in the test with SNB-19.

Values taken from ChEMBL document CHEMBL1201862, “PubChem BioAssay data set” (2004).
